In patent US20220274979A1 (Bayer Pharma Aktiengesellschaft, priority 2018, published 2022):

What was measured:
[1] = biological target: T1, hK-RasG12C - hSOS1 interaction (Homo sapiens, UniProt Q07889); assay: Biochemical Assay 1: hK-RasG12C interaction assay with hSOS1 (HTRF); assay type: binding; details: for IC50: values expressed as IC50
T1 construct: hSOS1 (amino acid 564-1049); made in house; host or cells: E. coli BL21 (DE3)
T1 sequence (Q07889 with tags, fused parts or gaps): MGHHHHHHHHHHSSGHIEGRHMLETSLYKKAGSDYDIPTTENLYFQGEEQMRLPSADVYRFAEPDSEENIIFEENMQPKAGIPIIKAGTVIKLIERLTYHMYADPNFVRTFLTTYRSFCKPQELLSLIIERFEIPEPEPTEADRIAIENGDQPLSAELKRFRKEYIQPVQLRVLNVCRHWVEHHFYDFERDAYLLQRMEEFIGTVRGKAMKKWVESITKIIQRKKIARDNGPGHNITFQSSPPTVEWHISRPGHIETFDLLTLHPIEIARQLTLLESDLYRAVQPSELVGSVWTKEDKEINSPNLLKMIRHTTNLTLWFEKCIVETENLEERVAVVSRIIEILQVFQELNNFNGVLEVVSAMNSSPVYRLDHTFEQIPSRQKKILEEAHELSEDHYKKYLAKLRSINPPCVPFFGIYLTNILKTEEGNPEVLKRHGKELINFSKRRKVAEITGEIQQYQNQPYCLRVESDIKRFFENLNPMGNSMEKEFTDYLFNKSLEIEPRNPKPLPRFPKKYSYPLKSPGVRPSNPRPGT
Summary of the method: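 HTRF signal between GST-hK-RasG12C (10 nM working solution, anti-GST-Eu) and His-hSOS1 (20 nM working solution, anti-6His-XL665) was read in HEPES pH 7.4 buffer with 10 mM EDTA, 1 mM DTT and 100 mM KF at 20 °C.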

[2] = biological target: T2, Epidermal Growth Factor Receptor (EGFR) (Homo sapiens, UniProt P00533); assay: EGFR kinase assay (TR-FRET); assay type: biochemical; details: 10 μM ATP; read-out: EGFR kinase inhibition IC50
T2 construct: purchased Sigma-Aldrich E3641
T2 sequence (P00533 25-1210): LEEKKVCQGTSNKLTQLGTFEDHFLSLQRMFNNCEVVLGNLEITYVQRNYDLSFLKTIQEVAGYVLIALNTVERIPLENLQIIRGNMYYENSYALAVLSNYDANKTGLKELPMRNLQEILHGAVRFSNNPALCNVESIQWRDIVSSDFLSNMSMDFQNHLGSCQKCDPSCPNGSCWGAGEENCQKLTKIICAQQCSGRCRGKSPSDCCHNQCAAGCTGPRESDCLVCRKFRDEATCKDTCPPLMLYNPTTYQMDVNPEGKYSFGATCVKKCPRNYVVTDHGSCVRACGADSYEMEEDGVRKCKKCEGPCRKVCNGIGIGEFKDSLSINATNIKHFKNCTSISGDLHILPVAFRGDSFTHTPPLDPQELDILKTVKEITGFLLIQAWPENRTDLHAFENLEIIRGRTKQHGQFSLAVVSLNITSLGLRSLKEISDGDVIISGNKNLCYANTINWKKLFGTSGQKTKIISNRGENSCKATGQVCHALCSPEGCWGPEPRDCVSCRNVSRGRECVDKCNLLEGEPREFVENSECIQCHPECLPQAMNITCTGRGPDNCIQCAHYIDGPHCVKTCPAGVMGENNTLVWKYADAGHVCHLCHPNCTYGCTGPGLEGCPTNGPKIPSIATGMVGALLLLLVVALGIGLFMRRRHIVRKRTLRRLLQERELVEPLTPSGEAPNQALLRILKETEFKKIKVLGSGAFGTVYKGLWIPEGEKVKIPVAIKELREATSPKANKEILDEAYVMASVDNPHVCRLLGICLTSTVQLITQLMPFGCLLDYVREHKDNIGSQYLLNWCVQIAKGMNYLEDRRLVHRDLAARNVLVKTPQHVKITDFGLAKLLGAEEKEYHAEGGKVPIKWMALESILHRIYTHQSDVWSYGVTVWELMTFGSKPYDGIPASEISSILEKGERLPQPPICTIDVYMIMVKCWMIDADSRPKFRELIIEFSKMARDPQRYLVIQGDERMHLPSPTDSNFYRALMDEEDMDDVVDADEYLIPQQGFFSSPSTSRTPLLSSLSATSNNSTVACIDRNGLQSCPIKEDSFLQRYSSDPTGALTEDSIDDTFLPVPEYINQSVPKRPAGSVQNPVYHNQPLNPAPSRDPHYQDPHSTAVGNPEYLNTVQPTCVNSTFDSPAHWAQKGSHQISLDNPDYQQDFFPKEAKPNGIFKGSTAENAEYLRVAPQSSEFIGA
Summary of the method: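 EGFR purified from A431 cells pre-incubated 15 min with compound, then reacted 20 min at 22 °C with 10 μM ATP and 1 μM biotinylated peptide (final) in HEPES pH 7.0 with Mg2+/Mn2+. Phosphopeptide detected by TR-FRET (Tb anti-phosphotyrosine/streptavidin-XL665), 665/620 nm emission ratio.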

Row | Structure (SMILES) | IC50 [1] [nM] | IC50 [2] [nM] | inhibition at 20 µM ([1]; read-out: Assay 1 (hKRAS, hSOS Interaction) activity (expressed as IC50, or as % inhibition at 20 μM)) [%]
1 | CC(=O)NCCNc1cc2c(NC(C)c3ccc(-c4ccccc4CN(C)C)s3)nc(C)nc2cn1 (stereo not shown) [Example 51, N-{2-[(4-{[1-(5-{2-[(dimethylamino)methyl]phenyl}thiophen-2-yl)ethyl]amino}-2-methylpyrido[3,4-d]pyrimidin-6-yl)amino]ethyl}acetamide] | 32.9 | > 20000 | –
2 | Cc1nc(NC(C)c2ccc(-c3ccccc3CN(C)C)s2)c2cc(Oc3cccc(O)c3)ncc2n1 (stereo not shown) [Example 52, 3-[(4-{[1-(5-{2-[(dimethylamino)methyl]phenyl}thiophen-2-yl)ethyl]amino}-2-methylpyrido[3,4-d]pyrimidin-6-yl)oxy]phenol] | 202 | > 20000 | –
3 | Cc1nc(NC(C)c2ccc(-c3ccccc3CN(C)C)s2)c2cc(NC3CCOCC3)ncc2n1 (stereo not shown) [Example 53, N4-[1-(5-{2-[(dimethylamino)methyl]phenyl}-2-thienyl)ethyl]-2-methyl-N6-(tetrahydro-2H-pyran-4-yl)pyrido[3,4-d]pyrimidine-4,6-diamine] | 54.7 | > 20000 | –
4 | Cc1nc(NC(C)c2ccc(-c3ccccc3CN(C)C)s2)c2cc(NCCn3cccn3)ncc2n1 (stereo not shown) [Example 54, N4-[1-(5-{2-[(dimethylamino)methyl]phenyl}-2-thienyl)ethyl]-2-methyl-N6-[2-(1H-pyrazol-1-yl)ethyl]pyrido[3,4-d]pyrimidine-4,6-diamine] | 49.6 | > 20000 | –
5 | Cc1nc(NC(C)c2ccc(-c3ccccc3CN(C)C)s2)c2cc(NCCn3ccnc3)ncc2n1 (stereo not shown) [Example 56, N4-[1-(5-{2-[(dimethylamino)methyl]phenyl}-2-thienyl)ethyl]-N6-[2-(1H-imidazol-1-yl)ethyl]-2-methylpyrido[3,4-d]pyrimidine-4,6-diamine] | 39.4 | > 20000 | –
6 | COc1cc2c(N[C@H](C)c3cccc(Br)c3)nc(C)nc2cn1 [Example 57, N-[(1R)-1-(3-bromophenyl)ethyl]-6-methoxy-2-methylpyrido[3,4-d]pyrimidin-4-amine] | 1970 | > 20000 | –
7 | Cc1nc(NC(C)c2ccc(-c3ccccc3CN(C)C)s2)c2cc(Oc3cccc(C4=NCCN4C)c3)ncc2n1 (stereo not shown) [Example 58, N-[1-(5-{2-[(dimethylamino)methyl]phenyl}thiophen-2-yl)ethyl]-2-methyl-6-[3-(1-methyl-4,5-dihydro-1H-imidazol-2-yl)phenoxy]pyrido[3,4-d]pyrimidin-4-amine] | 117 | > 20000 | –
8 | CSc1cc2c(NC(C)c3ccc(-c4ccccc4CN(C)C)s3)nc(C)nc2cn1 (stereo not shown) [Example 59, N-[1-(5-{2-[(dimethylamino)methyl]phenyl}thiophen-2-yl)ethyl]-2-methyl-6-(methylsulfanyl)pyrido[3,4-d]pyrimidin-4-amine] | 66.2 | > 20000 | –
9 | CC(=O)NCCOc1cc2c(N[C@H](C)c3cccc(Br)c3)nc(C)nc2cn1 [Example 62, N-{2-[(4-{[(1R)-1-(3-bromophenyl)ethyl]amino}-2-methylpyrido[3,4-d]pyrimidin-6-yl)oxy]ethyl}acetamide] | 291 | > 20000 | –
10 | CCOc1cc2c(NC(C)c3ccc(-c4ccccc4CN(C)C)s3)nc(C)nc2cn1 (stereo not shown) [Example 63, N-[1-(5-{2-[(dimethylamino)methyl]phenyl}thiophen-2-yl)ethyl]-6-ethoxy-2-methylpyrido[3,4-d]pyrimidin-4-amine] | 43.6 | > 20000 | –
11 | COc1cc2c(NC(C)c3ccc(-c4ccccc4CN(C)C)s3)nc(C)nc2cn1 (stereo not shown) [Example 64, N-[1-(5-{2-[(dimethylamino)methyl]phenyl}thiophen-2-yl)ethyl]-6-methoxy-2-methylpyrido[3,4-d]pyrimidin-4-amine] | 59.5 | > 20000 | –
12 | Cc1nc(NC(C)c2ccc(-c3ccccc3CN(C)C)s2)c2cc(OC3CCS(=O)(=O)CC3)ncc2n1 (stereo not shown) [Example 67, N-[1-(5-{2-[(dimethylamino)methyl]phenyl}thiophen-2-yl)ethyl]-6-[(1,1-dioxidotetrahydro-2H-thiopyran-4-yl)oxy]-2-methylpyrido[3,4-d]pyrimidin-4-amine] | 42 | > 20000 | –
13 | Cc1nc(NC(C)c2ccc(-c3ccccc3CO)s2)c2cc(F)ncc2n1 (stereo not shown) [Example 68, [2-(5-{1-[(6-fluoro-2-methylpyrido[3,4-d]pyrimidin-4-yl)amino]ethyl}thiophen-2-yl)phenyl]methanol] | – | > 20000 | 43.8
14 | Cc1nc(N[C@H](C)c2cccc(Br)c2)c2cc(OCCCN(C)C)ncc2n1 [Example 70, N-[(1R)-1-(3-bromophenyl)ethyl]-6-[3-(dimethylamino)propoxy]-2-methylpyrido[3,4-d]pyrimidin-4-amine] | 409 | > 20000 | –
15 | Cc1nc(NC(C)c2ccc(-c3ccccc3CN(C)C)s2)c2cc(N3CCC3)ncc2n1 (stereo not shown) [Example 71, 6-(azetidin-1-yl)-N-[1-(5-{2-[(dimethylamino)methyl]phenyl}thiophen-2-yl)ethyl]-2-methylpyrido[3,4-d]pyrimidin-4-amine] | 51.1 | > 20000 | –
16 | Cc1nc(NC(C)c2ccc(-c3ccccc3CN(C)C)s2)c2cc(OCCCN(C)C)ncc2n1 (stereo not shown) [Example 72, N-[1-(5-{2-[(dimethylamino)methyl]phenyl}thiophen-2-yl)ethyl]-6-[3-(dimethylamino)propoxy]-2-methylpyrido[3,4-d]pyrimidin-4-amine] | 34.2 | > 20000 | –
17 | Cc1nc(NC(C)c2ccc(-c3ccccc3CN(C)C)s2)c2cc(OCC3CC3)ncc2n1 (stereo not shown) [Example 73, 6-(cyclopropylmethoxy)-N-[1-(5-{2-[(dimethylamino)methyl]phenyl}thiophen-2-yl)ethyl]-2-methylpyrido[3,4-d]pyrimidin-4-amine] | 95 | > 20000 | –
18 | Cc1nc(NC(C)c2ccc(-c3ccccc3CN(C)C)s2)c2cc(OCCO)ncc2n1 (stereo not shown) [Example 74, 2-[(4-{[1-(5-{2-[(dimethylamino)methyl]phenyl}thiophen-2-yl)ethyl]amino}-2-methylpyrido[3,4-d]pyrimidin-6-yl)oxy]ethanol] | 55.2 | > 20000 | –
19 | Cc1nc(N[C@H](C)c2cccc(Br)c2)c2cc(OCC3CC3)ncc2n1 [Example 75, N-[(1R)-1-(3-bromophenyl)ethyl]-6-(cyclopropylmethoxy)-2-methylpyrido[3,4-d]pyrimidin-4-amine] | 4180 | > 20000 | –
20 | Cc1nc(NC(C)c2ccc(-c3ccccc3CN(C)C)s2)c2cc(OCCCO)ncc2n1 (stereo not shown) [Example 76, 3-[(4-{[1-(5-{2-[(dimethylamino)methyl]phenyl}thiophen-2-yl)ethyl]amino}-2-methylpyrido[3,4-d]pyrimidin-6-yl)oxy]propan-1-ol] | 45.2 | > 20000 | –
21 | Cc1nc(NC(C)c2ccc(-c3ccccc3CN(C)C)s2)c2cc(OC3CCS(=N)(=O)CC3)ncc2n1 (stereo not shown) [Example 77, N-[1-(5-{2-[(dimethylamino)methyl]phenyl}-2-thienyl)ethyl]-6-[(1-imino-1-oxidohexahydro-1lambda4-thiopyran-4-yl)oxy]-2-methylpyrido[3,4-d]pyrimidin-4-amine] | 49.8 | > 20000 | –
22 | Cc1nc(N[C@H](C)c2cccc(Br)c2)c2cc(OCCN(C)C)ncc2n1 [Example 78, N-[(1R)-1-(3-bromophenyl)ethyl]-6-[2-(dimethylamino)ethoxy]-2-methylpyrido[3,4-d]pyrimidin-4-amine] | 1280 | > 20000 | –
23 | Cc1nc(N[C@H](C)c2cccc(Br)c2)c2cc(NCCS(C)(=O)=O)ncc2n1 [Example 83] | 575 | > 20000 | –
24 | Cc1nc(N[C@H](C)c2cccc(Br)c2)c2cc(NCCn3ccnc3)ncc2n1 [Example 84, N4-[(1R)-1-(3-bromophenyl)ethyl]-N6-[2-(1H-imidazol-1-yl)ethyl]-2-methylpyrido[3,4-d]pyrimidine-4,6-diamine] | 513 | > 20000 | –
25 | Cc1nc(NC(C)c2ccc(-c3ccccc3CN(C)C)s2)c2cc(NCC3CCNC(=O)C3)ncc2n1 (stereo not shown) [Example 86, 4-{[(4-{[1-(5-{2-[(dimethylamino)methyl]phenyl}thiophen-2-yl)ethyl]amino}-2-methylpyrido[3,4-d]pyrimidin-6-yl)amino]methyl}piperidin-2-one] | 119 | > 20000 | –
26 | Cc1nc(NC(C)c2ccc(-c3ccccc3CN(C)C)s2)c2cc(N3CC(NC(=O)CCCn4c(-c5ccccn5)nc(C)c4C)C3)ncc2n1 (stereo not shown) [Example 87, N-[1-(4-{[1-(5-{2-[(dimethylamino)methyl]phenyl}thiophen-2-yl)ethyl]amino}-2-methylpyrido[3,4-d]pyrimidin-6-yl)azetidin-3-yl]-4-[4,5-dimethyl-2-(pyridin-2-yl)-1H-imidazol-1-yl]butanamide] | 71 | > 20000 | –
